The values below come from US12239629B2 (priority 2020, dated 2025).

For data set [1] the following is noted: cited from earlier work.
A short description of data set [2]: Dissolution test of Artemether/Lumefantrine-Remdesivir soft gel capsule. It counts as physicochemical. The settings on record: 0.1 N. HCl with 3% Benzalkonium Chloride. The source says: The soft gel capsule of Artemether and Lumefantrine is comprised: Artemether 4 to 5% w/w, Lumefantrine 20-24% w/w, Remdesivir 18-20%, non-aqueous vehicle 15-20% w/w, preservative less than 1% w/w, viscosity imparting agent 15-20% w/w, suspending agent 1 to 5% w/w and emulsifying agent 1 to 3% w/w and a process to manufacture the said preparation comprising of the following steps as given in the above Patent. • (a) Preservatives and Solid Suspending Agents were milled and sifted. • (b) Non-aqueous vehicle, viscosity imparting agent and liquid suspending agents were filtered to remove the foreign particles • (c) Additional steps for mixing preservatives and suspending agents: • (i) Preservatives were dissolved in non-aqueous vehicle; • (ii) Emulsifying agents were warmed and/or melted and added into mixture in (i) above; • (iii) Viscosity imparting agent is added to mixture of (ii) above and the resultant mixture is stirred. • (iv) Suspending agent is added and mixed with the mixture in (iii) above; and • (v) The mixture of (a) above and (c) (iv) above was homogenized. • (d) The mixture in (v) above was the encapsulated in soft gelatin.
Drug dissolution testing is routinely used to provide critical in vitro drug release information for both quality control purposes to predict in vivo drug release profiles.
The media for dissolution test was 0.1 N. HCl with 3% Benzalkonium Chloride.

Data set [3] concerns SARS-CoV2. Briefly: Drug pretreatment of Vero E6 cells prior to SARS-CoV2 infection, indirect immunofluorescence. It counts as cell-based. The settings on record: pretreatment 18-24 hours prior to virus infection. Here is the method: (§1) In carrying out the in vitro experiments, vero E6 cells (an African green monkey kidney cell line) were infected with SARS-CoV2 at a multiplicity of infection of 0.5 for 1 hour. The cells were washed with PBS and then incubated in OPTI-MEM (Invitrogen) medium with or without various concentrations of the following drug candidates: Artemether (from BiopharmaRx) Hydroxychloroquine (from Sigma Aldrich), Atazanavir (from Sigma Aldrich), and Efavirenz (from Sigma Aldrich), Fosamprenavir Calcium (from Sigma Aldrich), Saquinavir (from Sigma Aldrich) and Remdesivir (from AOBIOUS, INC., USA)
(§2) Immunofluorescence staining was performed with SARS-CoV2-specific hyperimmune mouse ascitic fluid (HMAF) followed by anti-mouse fluorescein-coupled antibody.
Experiments were carried out to determine the impact of artemether treatment on SARS-CoV2 infection. Permissive Vero E6 cells were pre-treated with various concentrations of artemether (0.1-50 μM) for 18-24 hours prior to virus infection. Cells were then infected with SARS-CoV2, and virus antigens were visualized by indirect immunofluorescence. For quantitative purposes, we counted the number of cells stained positive from three random locations on a slide. The average number of positively stained control cells was scored as 100% and was compared with the number of positive cells observed under various artemether concentrations. Pretreatment with 0.1, 1, 10, 20, 30, 40 and 50 μM artemether reduced infectivity by 4%, 12%, 32%, 45%, 63%, 92% and 100% respectively. Reproducible results were obtained from three independent experiments.

Data set [4] relates to SARS-CoV2. Description: Drug added to Vero E6 cells immediately after SARS-CoV2 adsorption, indirect immunofluorescence after 24 hours. It counts as cell-based. Here is the method:
as §1, §2
The antiviral properties of artemether on SARS-CoV2 after the initiation of infection were studied. Vero E6 cells were infected with the virus and fresh medium supplemented with various concentrations of artemether was added immediately after virus adsorption. Infected cells were incubated for an additional 24 hours, after which the presence of virus antigens was analyzed by indirect immunofluorescence analysis. When artemether was added after the initiation of infection, there was a dramatic dose dependent decrease in the number of virus antigen-positive cells. […] A half-maximal inhibitory effect was estimated to occur at 16.5±1.0 μM artemether. […] (FIG. 2).

A short description of data set [5]: Peak Inhibitory Concentration (Threshold) after oral administration. The method, then: It is noted that the Peak Inhibitory Concentration (Threshold) of Artemether and Remdesivir were at 120 minutes after oral administration. The Peak Inhibitory Concentration (Threshold) of Lumefantrine was at 60 minutes after oral administration.
The subject of data set [6] is SARS-CoV2. Briefly: In-vitro experiments, time of drug addition relative to infection. The class given is cell-based. The settings on record: added between 3 hours pre-infection and 3 hours after infection. The method, then:
Less inhibition was detected when the drug was added after 12 hours post-infection (Our observation was consistent with the report by Agostini et al regarding GS-5734 (remdesivir) (Agostini M L, Andres E L, Sims A C, Graham R L, Sheahan T P, Lu X, Smith E C, Case J B, Feng J Y, Jordan R, Ray AS, Cihlar T, Siegel D, Mackman R L, Clarke M O, Baric R S, Denison M R. 2018. Coronavirus susceptibility to the antiviral remdesivir (GS-5734) is mediated by the viral polymerase and the proofreading exoribonuclease. mBio 9:e00221-18. https://doi.org/10.1128/mBio.00221-18.).
as §1

The nature of data set [7]: Artemether via nasal delivery system in vivo. The settings on record: administered locally via nasal delivery system in vivo.

As for “(1R.4S,5R.8S.9R, 10S, 12R, 13R)-10-methoxy-1,5,9-trimethyl-11,14,15,16-tetraoxatetracyclo[10.3. 1.04, 13.08, 13]hexadecane [Artemether]”, in data set [1], the “solubility in water (words)” value was “sparingly soluble”. Also, the “% Cumulative Drug Release” value in data set [2] (60 minute time frame) was 92.3%. Further, the “% of Drug Release in a Dissolution Test” value in data set [2] (sample time 30 minute) is 47.3%; in data set [2] (sample time 60 minute), 72.25%; in data set [2] (sample time 90 minute) it was 88.7%; in data set [2] (sample time 120 minute), 93.8%. In addition, the reduced infectivity in the data set on SARS-CoV2 [3] (0.1 μM) was determined as 4%; in the data set on SARS-CoV2 [3] (1 μM) it was 12%; in the data set on SARS-CoV2 [3] (10 μM), 32%; in the data set on SARS-CoV2 [3] (20 μM) it was 45%; with SARS-CoV2 [3] (30 μM) it was 63%; in the data set on SARS-CoV2 [3] (40 μM), 92%. The reduced infectivity in the data set on SARS-CoV2 [3] (50 μM) is on record as 100%. Further, the inhibition with SARS-CoV2 [4] (40-100 μM concentrations, added after the initiation of infection) is 71-96%. This substance also yielded a reduced the infection in the data set on SARS-CoV2 [4] (approximately 10 μM added immediately after virus adsorption, 24 hours) of 40%. Moreover, the IC50 in the data set on SARS-CoV2 [4] (drug added immediately after virus adsorption, Vero E6 cells, estimated, read-out: half-maximal inhibitory effect) is 16.5 ± 1 µM. For the same substance, the “time of Peak Inhibitory Concentration (Threshold)” value in data set [5] was determined as 120 min. For the same substance, the “inhibition by time of addition” value in the data set on SARS-CoV2 [6] was “maximal inhibition”. Moreover, in data set [7], the “absorption and bioavailability, nasal vs systemic administration” value is “adsorbed quickly with more bioavailability”.
